The text below walks through data of patent US9862730B2, “Imidazothiadiazole derivatives as protease activated receptor 4 (PAR4) inhibitors for treating platelet aggregation” (BRISTOL-MYERS SQUIBB COMPANY, priority 2012, dated 2018).

Sequence of PAR4 (Q96RI0 18-385): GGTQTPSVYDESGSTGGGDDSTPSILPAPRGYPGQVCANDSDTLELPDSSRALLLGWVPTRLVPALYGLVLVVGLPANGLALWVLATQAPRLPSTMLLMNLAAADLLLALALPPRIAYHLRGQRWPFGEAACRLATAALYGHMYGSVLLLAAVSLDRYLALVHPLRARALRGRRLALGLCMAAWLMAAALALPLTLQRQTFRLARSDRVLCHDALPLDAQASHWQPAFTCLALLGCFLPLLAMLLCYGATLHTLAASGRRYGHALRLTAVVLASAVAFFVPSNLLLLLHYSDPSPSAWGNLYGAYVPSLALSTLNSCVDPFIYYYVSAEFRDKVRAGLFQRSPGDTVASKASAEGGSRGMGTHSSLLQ

This test has as its target PAR4 (Homo sapiens (Human), UniProt Q96RI0). In words: FLIPR assay in PAR4-expressing HEK293 cells (PAR4 antagonist activity, calcium mobilization). The test is classed as cell-based. To be noted: FLIPR assay as described in Example A. From the text: The FLIPR assay is an exemplary in vitro assay for measuring the activity of the PAR4 antagonists of the present invention. In this assay, intracellular calcium mobilization is induced in PAR4 expressing cells by a PAR4 agonist and calcium mobilization is monitored. See, e.g., Example A.
HEK293 cells stably expressing PAR4 were generated by a standard method of transfection of human […] cDNA expression vector or by RAGE technology from Athersys Inc. (Cleveland, Ohio) and selected based on PAR4 protein expression of mRNA expression. […] These cells express endogenous PAR1 and can elicit calcium signal upon stimulation with PAR1 agonist peptide.
Counter screens for agonist activity and PAR1 antagonist activity were also performed. Briefly, HEK293 EBNA PAR4 clone 20664.1J cells were plated 24 hrs. prior to experiment in 384 well, Poly-D-Lysine coated, black, clear bottom plates (Greiner Bio-One, Monroe, N.C.). Cells were plated at 20,000 cells/well in 20 μl growth medium and incubated at 37° C. with 5% CO2 overnight. At time of assay, media was replaced with 40 μl 1× Hank's Buffered Saline Solution (HBSS) (with 10 mM HEPES) and 20 μl test compound also diluted in 1×HBSS buffer was added at various concentrations and 0.67% DMSO final concentration on the FDSS for agonist measurement. The cells were then incubated for 30 minutes at room temperature followed by addition of 20 μl of agonist peptide for antagonist measurement on the FDSS.
As indicated above, the FLIPR assay, an in vitro assay, measures the PAR4 antagonist activity of compounds tested as described in Example A.
(In general: Calcium assays in cells follow changes in intracellular calcium, usually with a dye or a luminescent sensor.)
The term IC50 denotes the concentration that gives 50% inhibition. `CSc1nn2cc(-c3nc4ccc(OCc5ccccn5)cc4o3)nc2s1` [Example 117, 2-(2-(Methylthio)imidazo[2,1-b][1,3,4]thiadiazol-6-yl)-6-(pyridin-2-ylmethoxy)benzo[d]oxazole]: the half-inhibitory concentration (IC50) is 654 nM. In the case of `CSc1nn2cc(-c3cc4cc(Cl)c(C)cc4o3)nc2s1` [Example 269], the IC50 was 74.5 nM. `C[C@H](F)c1nn2cc(-c3cc4c(Cl)cc(Cl)cc4o3)nc2s1` [Example 213B, (S)-6-(4,6-Dichlorobenzofuran-2-yl)-2-(1-fluoroethyl)imidazo[2,1-b][1,3,4]thiadiazole]: the IC50 worked out at 10.3 nM. Take `COc1cc(OCc2cccc(OCc3ccc(F)c(C(F)(F)F)c3)c2)c2cc(-c3cn4nc(OC)sc4n3)oc2c1` [Example 315]: the IC50 is 8.88 nM. As to `COc1cc(OC)c2nc(-c3cn4nc(SC)sc4n3)sc2c1` [Example 189], the IC50 came to 2200 nM. Consider `Cc1cc2nc(-c3cn4nc(C(C)(F)F)sc4n3)oc2cc1C` [Example 179], for which the IC50 came to 225 nM. Take `CCOc1cc(OC)cc2oc(-c3cn4nc(Br)sc4n3)cc12` [Example 267]: the IC50 was found to be 7.53 nM.

Take `COc1nn2cc(-c3cc4c(Cl)cccc4o3)nc2s1` [Example 109]: the IC50 was 3.1 nM. Turning to `c1ccc2oc(-c3cn4nc(C5CC5)sc4n3)cc2c1` [Example 63], the IC50 was 201 nM. For `COc1cc(OC(C)C)c2cc(-c3cn4nc(Br)sc4n3)oc2c1` [Example 299] the value was 78.8 nM; for `CSc1nn2cc(-c3nc4c(OCc5cccc(C#N)c5)cccc4o3)nc2s1` [Example 156], 1020 nM. Regarding `COc1cc(OCc2ccc(C)c(OCc3ccccc3)c2)c2cc(-c3cn4nc(OC)sc4n3)oc2c1` [Example 352], the IC50 is 3.61 nM. Consider `COc1nn2cc(-c3nc4ccc(F)cc4s3)nc2s1` [Example 184, 6-Fluoro-2-(2-methoxyimidazo[2,1-b][1,3,4]thiadiazol-6-yl)benzo[d]thiazole], for which the IC50 was determined as 5.5 nM. For the compound `COc1cc2oc(-c3cn4nc(Br)sc4n3)cc2cc1Cl` [Example 200, 2-Bromo-6-(5-chloro-6-methoxybenzofuran-2-yl)imidazo[2,1-b][1,3,4]thiadiazole], the IC50 came out at 8.63 nM. For the compound `COc1cc(OCc2cccc(OCc3ccc(I)cc3)c2)c2cc(-c3cn4nc(OC)sc4n3)oc2c1` [Example 391], the IC50 was determined as 3.03 nM. As to `CSc1nn2cc(-c3cc4c(Br)cccc4o3)nc2s1` [Example 258], the IC50 amounted to 3.32 nM. For `COc1nn2cc(-c3cc4c(O)c(Cc5ccccc5)c(OC)cc4o3)nc2s1` [Example 224, 5-Benzyl-6-methoxy-2-(2-methoxyimidazo[2,1-b][1,3,4]thiadiazol-6-yl)benzofuran-4-ol], the IC50 turned out to be 97.1 nM. Regarding `COc1cc(OC)c2cc(-c3cn4nc(C(C)F)sc4n3)oc2c1` (stereo not drawn) [Example 212, 6-(4,6-Dimethoxybenzofuran-2-yl)-2-(1-fluoroethyl)imidazo-[2,1-b][1,3,4]thiadiazole], the IC50 is 50.9 nM. Consider `COc1cc(OCc2cccc(OCc3ccccc3)c2)c2oc(-c3cn4nc(OC)sc4n3)cc2c1` [Example 409, 6-(7-((3-(Benzyloxy)benzyl)oxy)-5-methoxybenzofuran-2-yl)-2-methoxyimidazo[2,1-b][1,3,4]thiadiazole], for which the IC50 turned out to be 3710 nM.

With `COCOc1cccc2oc(-c3cn4nc(SC)sc4n3)nc12` [Example 163], the IC50 was 39.5 nM.

For the compound `CCc1nn2cc(-c3nc4ccc(OCC(C)C)cc4o3)nc2s1` [Example 85], the IC50 amounted to 392 nM.

With `CC(F)(F)c1nn2cc(-c3cc4c(F)cccc4o3)nc2s1` [Example 273], the IC50 turned out to be 180 nM.

In the case of `CCc1nn2cc(-c3cc4cc(OC)ccc4o3)nc2s1` [Example 61], the IC50 turned out to be 1650 nM. Consider `COc1nn2cc(-c3nc4cc(C)ccc4o3)nc2s1` [Example 127], for which the IC50 came to 27.9 nM. As for `CCOC(=O)COc1cccc2cc(-c3cn4nc(CC)sc4n3)oc12` [Example 62], the IC50 turned out to be 587 nM. To `CCOc1cccc2oc(-c3cn4nc(SC)sc4n3)nc12` [Example 158] belongs 69.3 nM; to `COc1cc(OCc2cccc(OCc3ccccc3OC)c2)c2cc(-c3cn4nc(OC)sc4n3)oc2c1` [Example 309], 1.22 nM; to `CCc1nn2cc(-c3nc4ccc(OCC5CCCCC5)cc4o3)nc2s1` [Example 76], 3400 nM.

Take `COCOc1cccc2oc(-c3cn4nc(SC)sc4n3)cc12` [Example 215, 6-(4-(Methoxymethoxy)benzofuran-2-yl)-2-(methylthio)imidazo[2,1-b][1,3,4]thiadiazole]: the IC50 is 16.7 nM.

`COc1ccc2nc(-c3cn4nc(SC)sc4n3)oc2c1` [Example 116, 6-Methoxy-2-(2-(methylthio)imidazo[2,1-b][1,3,4]thiadiazol-6-yl)benzo[d]oxazole]: the IC50 was 6.63 nM. For `CSc1nn2cc(-c3nc4ccc(OCCN5CCCC5)cc4o3)nc2s1` [Example 114, 2-(2-(Methylthio)imidazo[2,1-b][1,3,4]thiadiazol-6-yl)-6-(2-(pyrrolidin-1-yl)ethoxy)benzo[d]oxazole] the value was 206 nM; for `CCCOc1cccc2cc(-c3cn4nc(CC)sc4n3)oc12` [Example 56], 601 nM.

Take `COc1cc(O)c2cc(-c3cn4nc(OC)sc4n3)oc2c1` [Example 204, 6-Methoxy-2-(2-methoxyimidazo[2,1-b][1,3,4]thiadiazol-6-yl)benzofuran-4-ol]: the IC50 was determined as 170 nM.

`COc1nn2cc(-c3cc4cccc(F)c4o3)nc2s1` [Example 263]: the IC50 is 20.7 nM.

On to `CSc1nn2cc(-c3nc4c(OCc5ccccc5)cccc4o3)nc2s1` [Example 148], for which the IC50 is 224 nM. Take `CSc1nn2cc(-c3nc4ccc(OCc5cc(F)cc(F)c5)cc4o3)nc2s1` [Example 152]: the IC50 came out at 340 nM.

Turning to `CC(F)(F)c1nn2cc(-c3cc4c(OCc5cccc(OCc6ccccc6)c5)cc(OS(=O)(=O)C(F)(F)F)cc4o3)nc2s1` [Example 422], the IC50 turned out to be 698 nM. To `CSc1nn2cc(-c3nc4c(OC[C@H]5CCCN5C(=O)[C@H](NC(=O)OC(C)(C)C)c5ccccc5)cccc4o3)nc2s1` [Example 333, tert-Butyl ((R)-2-((R)-2-(((2-(2-(methylthio)imidazo[2,1-b][1,3,4]thiadiazol-6-yl)benzo[d]oxazol-4-yl)oxy)methyl)pyrrolidin-1-yl)-2-oxo-1-phenylethyl)carbamate] belongs 566 nM; to `CSc1nn2cc(-c3nc4ccc(OCc5ccccc5Cl)cc4o3)nc2s1` [Example 151], 673 nM. With `COc1cc2oc(-c3cn4nc(C(C)F)sc4n3)cc2cc1Cl` (stereo in doubt) [270A], the IC50 came to 114 nM. As for `CSc1nn2cc(-c3cc4cccc(Cl)c4o3)nc2s1` [Example 23], the IC50 was 144 nM.

`COc1cc(OCc2ccccc2)c2cc(-c3cn4nc(C(C)(F)F)sc4n3)oc2c1` [Example 265]: the IC50 came out at 28 nM. As for `CSc1nn2cc(-c3nc4c(OCc5ccccn5)cccc4o3)nc2s1` [Example 166], the IC50 stood at 139 nM. As for `CSc1nn2cc(-c3nc4ccccc4o3)nc2s1` [Example 110, 2-(2-(Methylthio)imidazo[2,1-b][1,3,4]thiadiazol-6-yl)benzo[d]oxazole], the IC50 worked out at 213 nM. Regarding `COc1ccc2c(C)c(-c3cn4nc(SC)sc4n3)oc2c1OC` [Example 25], the IC50 worked out at 2.81 nM.
